# Assay results: EPA's ToxValDB 9.5 (doi:10.2903/j.efsa.2014.3692)
# Legend:
# Colinus virginianus = details: for LD50: acute, oral, mortality
# Rattus norvegicus = details: for LD50: acute, mortality
# Cyprinodon variegatus = details: mortality
# Bibionidae = details: chronic/long-term; duration: 28 days
# Canidae = details: reproduction developmental; duration: 90 days; Dog Other; mortality
# Mus musculus = details: acute; oral; mortality
# Chironomus tentans = details: acute, mortality
# Apis mellifera = details: acute, mortality
compound,measurement,setting,value
CC(O)c1ccc(C(F)(F)F)nc1 (centres undefined) [1-(6-(Trifluoromethyl)pyridin-3-yl)ethanol],LD50,Colinus virginianus,1040 mg/kg
same,LD50,Rattus norvegicus,2000 mg/kg
CC(c1ccc(C(F)(F)F)nc1)S(C)(=O)=NC#N (centres undefined) [Sulfoxaflor],LC50,"Cyprinodon variegatus; acute, duration: 96 hours",266 µg/mL
same,NOEC,"Cyprinodon variegatus; chronic/long-term, duration: 38 days",1.21 mg/L
same,LC50,"Neomysis kadiakensis; acute, duration: 96 hours, mortality",0.643 µg/mL
same,NOEC,"Neomysis kadiakensis; chronic/long-term, duration: 28 days, reproduction",0.114 mg/L
same,LD50,Colinus virginianus; diet,> 1150 mg/kg-day
same,LD50,Colinus virginianus,676 mg/kg
same,NOAEL,"Colinus virginianus; reproduction developmental, reproduction",84.4 mg/kg-day
same,NOEC,Bibionidae,0.0384 mg/L
same,NOAEL,Canidae,6.63 mg/kg-day
same,LC50,"Tagia sp.; acute, duration: 14 days, mortality",0.885 mg/kg
same,NOEC,"Tagia sp.; chronic/long-term, duration: 8 weeks",0.1 mg/kg
same,LD50,Rattus norvegicus; oral,1000 mg/kg
same,NOAEL,"Rattus norvegicus; chronic, duration: 2 years, other",4.24 mg/kg-day
same,NOAEL,"Rattus norvegicus; repeat dose other, neurology",25 mg/kg-day
same,NOAEL,"Rattus norvegicus; subchronic, duration: 90 days, oral, histopathology: nonneoplastic",6.36 mg/kg-day
same,NOAEL,"Anas platyrhynchos; reproductive, reproduction",25.9 mg/kg-day
same,LD50,"Anas platyrhynchos; short-term, oral, feed, mortality",> 1050 mg/kg-day
same,LD50,Mus musculus,750 mg/kg
same,LC50,Chironomus tentans; duration: 96 hours,0.622 µg/mL
same,LC50,Chironomus tentans; duration: 10 days,0.119 mg/kg
same,LD50,"Apis mellifera; duration: 48 hours, oral, unspecified",0.146 µg/piece
same,LD50,"Apis mellifera; duration: 72 hours, dermal",0.379 µg/piece
